Literature values, collected in patent US20050266079A1, “Process for making aqueous coated beadlets” (SmithKline Beecham Corporation, priority 1999, published 2005).

Conditions: in vivo; cited from earlier work

CN[C@@H](C)[C@@H](O)c1ccccc1.Cl [Pseudoephedrine HCl, (1S, 2S)-2-Methylamino-1-phenyl-1-propanol hydrochloride]
elimination half life: 5 to 8 h
